Columns and labels:
PRMT1 [1] = molecular target: T1, PRMT1 (Homo sapiens, UniProt Q99873); test: IC50 and nH determination, PRMT1; type: biochemical
PRMT5 = PRMT5 (Homo sapiens, UniProt O14744); test: IC50 and nH determination, PRMT5; type: biochemical; conditions: ratio of IC50 values
PRMT8 = PRMT8 (Homo sapiens, UniProt Q9NR22); test: IC50 and nH determination, PRMT8; type: biochemical; conditions: ratio of IC50 values
CARM1/PRMT4 = molecular target: T2, CARM1/PRMT4 (Homo sapiens, UniProt Q86X55); test: IC50 and nH determination, CARM1; type: biochemical; conditions: ratio of IC50 values
T2 sequence (Q86X55 1-608): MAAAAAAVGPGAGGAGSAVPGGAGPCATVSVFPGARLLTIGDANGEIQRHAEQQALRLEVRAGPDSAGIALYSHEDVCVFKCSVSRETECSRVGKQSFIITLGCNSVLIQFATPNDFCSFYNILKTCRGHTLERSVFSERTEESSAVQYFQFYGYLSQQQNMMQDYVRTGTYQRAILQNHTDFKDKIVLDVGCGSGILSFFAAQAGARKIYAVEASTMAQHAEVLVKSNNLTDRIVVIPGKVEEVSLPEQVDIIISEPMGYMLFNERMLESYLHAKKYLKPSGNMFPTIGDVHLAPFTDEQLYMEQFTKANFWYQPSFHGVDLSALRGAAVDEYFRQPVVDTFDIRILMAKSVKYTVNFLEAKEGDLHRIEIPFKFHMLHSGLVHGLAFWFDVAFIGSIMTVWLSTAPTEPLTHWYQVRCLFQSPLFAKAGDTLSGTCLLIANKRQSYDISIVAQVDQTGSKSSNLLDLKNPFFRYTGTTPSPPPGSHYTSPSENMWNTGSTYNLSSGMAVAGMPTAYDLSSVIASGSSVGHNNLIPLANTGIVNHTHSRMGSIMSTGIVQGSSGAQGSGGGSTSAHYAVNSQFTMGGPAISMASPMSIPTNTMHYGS

His6x-PRMT1 = His6x-PRMT1 (Homo sapiens, UniProt Q99873); test: Single-dose inhibition study with PRMT1 enzyme; type: biochemical; conditions: compound at 10 μM, N.I. = no inhibition
MOLM13 cells = test: Cell viability assay; type: cell-based
[2] = test system: total protein arginine methylation in Meg01, MOLM13, and HEL cells; test: Western blot of total protein arginine methylation in treated leukemia cells; type: cell-based; conditions: 24 h of treatment; anti-methyl-R antibodies
HEL cells = test: Cell viability assay; type: cell-based
Meg01 cells = test: Cell viability assay; type: cell-based
PRMT1 [3] = molecular target: T1, PRMT1; test: Fluorescence titration of compound 50 by PRMT1; type: binding; conditions: excitation 620 nm

T1 sequence (Q99873 1-353 isoform Q99873-3): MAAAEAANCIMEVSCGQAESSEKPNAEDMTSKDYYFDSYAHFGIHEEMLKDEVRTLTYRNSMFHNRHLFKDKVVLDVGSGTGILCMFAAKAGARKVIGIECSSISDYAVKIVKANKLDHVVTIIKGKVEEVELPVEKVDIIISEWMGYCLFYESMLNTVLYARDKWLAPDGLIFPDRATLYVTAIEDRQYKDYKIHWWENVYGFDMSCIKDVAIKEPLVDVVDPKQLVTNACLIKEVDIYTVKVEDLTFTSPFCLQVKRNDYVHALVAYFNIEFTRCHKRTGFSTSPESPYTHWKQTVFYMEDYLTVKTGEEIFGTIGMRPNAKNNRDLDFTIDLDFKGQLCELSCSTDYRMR
Sequence of His6x-PRMT1 (Q99873 1-353 isoform Q99873-3): as above
Sequence of PRMT8 (Q9NR22 whole entry, species assumed): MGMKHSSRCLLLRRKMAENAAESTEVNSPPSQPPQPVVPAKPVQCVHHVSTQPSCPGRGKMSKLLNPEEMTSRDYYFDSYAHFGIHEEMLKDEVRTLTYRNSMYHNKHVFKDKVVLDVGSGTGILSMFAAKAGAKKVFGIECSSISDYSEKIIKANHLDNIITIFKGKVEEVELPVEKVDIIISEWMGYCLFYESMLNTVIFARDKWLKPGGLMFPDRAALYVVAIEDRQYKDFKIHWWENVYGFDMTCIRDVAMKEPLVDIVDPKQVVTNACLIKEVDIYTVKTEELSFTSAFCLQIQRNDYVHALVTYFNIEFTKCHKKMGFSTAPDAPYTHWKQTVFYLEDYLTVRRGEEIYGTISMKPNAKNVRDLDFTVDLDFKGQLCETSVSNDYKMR
Sequence of PRMT5 (O14744 whole entry, species assumed): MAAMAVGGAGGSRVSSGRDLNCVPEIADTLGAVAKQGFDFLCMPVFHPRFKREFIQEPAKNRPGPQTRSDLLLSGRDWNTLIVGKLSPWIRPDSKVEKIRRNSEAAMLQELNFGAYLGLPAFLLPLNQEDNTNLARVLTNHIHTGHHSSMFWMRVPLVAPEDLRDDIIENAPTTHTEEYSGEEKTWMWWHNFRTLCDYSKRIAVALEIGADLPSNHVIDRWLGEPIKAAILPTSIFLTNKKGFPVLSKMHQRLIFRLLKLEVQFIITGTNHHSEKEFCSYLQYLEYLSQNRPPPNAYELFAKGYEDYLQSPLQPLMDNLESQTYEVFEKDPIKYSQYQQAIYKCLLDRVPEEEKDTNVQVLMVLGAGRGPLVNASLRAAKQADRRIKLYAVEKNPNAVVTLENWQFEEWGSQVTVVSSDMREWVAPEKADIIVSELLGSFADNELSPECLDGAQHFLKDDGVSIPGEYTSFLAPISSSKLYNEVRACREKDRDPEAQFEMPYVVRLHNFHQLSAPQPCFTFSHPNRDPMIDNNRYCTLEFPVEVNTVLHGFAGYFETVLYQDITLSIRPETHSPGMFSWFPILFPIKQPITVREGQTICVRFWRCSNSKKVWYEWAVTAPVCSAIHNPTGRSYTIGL
Sequence of PRMT5 (Q9BQA1 whole entry partner, species assumed): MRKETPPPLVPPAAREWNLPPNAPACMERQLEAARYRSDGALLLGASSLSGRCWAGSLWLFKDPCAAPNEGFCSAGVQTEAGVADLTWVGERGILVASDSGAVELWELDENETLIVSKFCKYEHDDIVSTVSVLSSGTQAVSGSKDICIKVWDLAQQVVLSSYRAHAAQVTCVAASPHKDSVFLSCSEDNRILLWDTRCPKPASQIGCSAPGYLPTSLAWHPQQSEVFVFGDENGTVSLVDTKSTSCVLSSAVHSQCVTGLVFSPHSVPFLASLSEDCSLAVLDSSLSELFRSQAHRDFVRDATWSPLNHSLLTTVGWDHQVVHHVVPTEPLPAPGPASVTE

CC1(C)C(/C=C/C=C2/N(CCCc3ccccc3)c3ccc(Cl)cc3C2(C)C)=[N+](CCCc2ccccc2)c2ccc(Cl)cc21.[Br-] [Compound 24, 5-Chloro-2-((E)-3-((E)-5-chloro-3,3-dimethyl-1-(3-phenylpropyl)indolin-2-ylidene)prop-1-en-1-yl)-3,3-dimethyl-1-(3-phenylpropyl)-3H-indol-1-ium Bromide]
selectivity for PRMT1 over other PRMTs (CARM1, PRMT5, and PRMT8) (PRMT1 [1]; overall statement): no selectivity

C(/C=C/c1sc2c3ccccc3ccc2[n+]1CCCc1ccccc1)=C1/Sc2c(ccc3ccccc23)N1CCCc1ccccc1.[I-] [Compound 47, 3-(3-Phenylpropyl)-2-((1E,3Z)-3-(3-(3-phenylpropyl)naphtho[2,1-d]thiazol-2(3H)-ylidene)prop-1-en-1-yl)naphtho[2,1-d]thiazol-3-ium Iodide]
selectivity for PRMT1 over PRMT5 (PRMT5): about 2 fold
selectivity for PRMT1 over PRMT8 (PRMT8): more than 9 fold
selectivity for PRMT1 over CARM1 (CARM1/PRMT4): about 2 fold

CCN1/C(=C/C(C)=C/c2sc3c4ccccc4ccc3[n+]2CC)Sc2c1ccc1ccccc21 [Compound 48, 3-Ethyl-2-((1E,3Z)-3-(3-ethylnaphtho[2,1-d]thiazol-2(3H)-ylidene)-2-methylprop-1-en-1-yl)naphtho[2,1-d]thiazol-3-ium Iodide]
inhibition at 10 µM (His6x-PRMT1; read-out: Inhibition (10 μM), PRMT1): 90%

CCCCN1/C(=C/C=C(Br)/C=C/C2=[N+](CCCC)c3ccc(Br)cc3C2(C)C)C(C)(C)c2cc(Br)ccc21.[I-] [Compound 50, 5-Bromo-2-((1E,3Z)-3-bromo-5-((E)-5-bromo-1-butyl-3,3-dimethylindolin-2-ylidene)penta-1,3-dien-1-yl)-1-butyl-3,3-dimethyl-3H-indol-1-ium Iodide]
concentration that significantly inhibited leukemia cell growth (MOLM13 cells): 100 nM
total protein arginine methylation level [2]: significant loss of total protein arginine methylation
concentration that significantly inhibited leukemia cell growth (HEL cells): 200 nM
concentration that significantly inhibited leukemia cell growth (Meg01 cells): 100 nM
fluorescence intensity increase upon binding to PRMT1 (PRMT1 [3]): about 6 fold

CCCCN1/C(=C/C=C/C2=[N+](CCCC)c3ccccc3C2(C)C)C(C)(C)c2ccccc21.[I-] [Compound E-6]
Inhibition (10 μM) (His6x-PRMT1; PRMT1, 10 µM): no inhibition

CC1(C)C(/C=C/C=C2/N(CCCc3ccccc3)c3ccc4ccccc4c3C2(C)C)=[N+](CCCc2ccccc2)c2ccc3ccccc3c21.[Br-] [Compound E-8]
fold more potent on PRMT1 than naphthothiazolium counterpart 47 (PRMT1 [1]; IC50 0.61 μM vs 3.05 μM): about 5 fold
